Laboratory results as given in patent publication US9060993B2, “Compositions and methods for treating cancer” (The Trustees of the University of Pennsylvania, priority 2003, dated 2015).
Blank lines part the entries; values can stand above or below the compound they belong to.

Tests used:
[1] = biological target: T1, ATP citrate lyase (Mus musculus, UniProt Q91V92); assay: ATP citrate lyase activity in cellular extracts (malate dehydrogenase coupled, NADH consumption at 340 nm); assay type: biochemical; conditions: mitogen stimulated cell extracts
T1 construct: is added to mitogen stimulated cell extracts with an IC50 of approximately 3 μM; endogenous in cells; host or cells: IL-3-dependent cell line (FL5.12), mitogen-stimulated; cytosolic extract
T1 sequence (Q91V92 1-1091): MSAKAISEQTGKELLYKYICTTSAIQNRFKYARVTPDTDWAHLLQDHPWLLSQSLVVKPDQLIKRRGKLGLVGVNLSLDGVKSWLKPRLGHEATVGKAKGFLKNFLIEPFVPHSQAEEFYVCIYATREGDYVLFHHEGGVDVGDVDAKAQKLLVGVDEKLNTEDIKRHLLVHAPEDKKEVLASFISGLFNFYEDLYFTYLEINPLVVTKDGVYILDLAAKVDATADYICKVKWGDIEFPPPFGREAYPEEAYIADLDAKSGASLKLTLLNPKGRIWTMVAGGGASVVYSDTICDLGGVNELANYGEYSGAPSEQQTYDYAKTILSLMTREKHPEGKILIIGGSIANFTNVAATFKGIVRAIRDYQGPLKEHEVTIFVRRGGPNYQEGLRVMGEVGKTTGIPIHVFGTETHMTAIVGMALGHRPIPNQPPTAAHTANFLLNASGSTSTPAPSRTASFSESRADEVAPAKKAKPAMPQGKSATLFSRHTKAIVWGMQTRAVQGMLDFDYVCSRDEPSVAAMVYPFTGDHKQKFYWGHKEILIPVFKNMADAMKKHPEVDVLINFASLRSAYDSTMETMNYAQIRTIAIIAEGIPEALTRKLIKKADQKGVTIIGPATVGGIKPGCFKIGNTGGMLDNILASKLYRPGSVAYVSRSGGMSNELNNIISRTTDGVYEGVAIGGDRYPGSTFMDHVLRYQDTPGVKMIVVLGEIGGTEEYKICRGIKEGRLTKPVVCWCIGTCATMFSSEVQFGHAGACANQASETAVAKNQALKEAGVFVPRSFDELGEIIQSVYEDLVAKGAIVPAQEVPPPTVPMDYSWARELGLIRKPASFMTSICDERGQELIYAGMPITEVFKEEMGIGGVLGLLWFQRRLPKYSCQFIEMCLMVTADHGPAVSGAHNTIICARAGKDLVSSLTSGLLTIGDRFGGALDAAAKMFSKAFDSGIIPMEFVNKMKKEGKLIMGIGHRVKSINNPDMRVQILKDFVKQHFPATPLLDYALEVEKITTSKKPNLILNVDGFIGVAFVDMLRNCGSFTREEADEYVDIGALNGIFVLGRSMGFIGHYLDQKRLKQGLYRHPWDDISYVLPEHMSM
Experimental: To investigate the potential induction of ATP citrate lyase in response to mitogen stimulation of cell proliferation, an assay was developed to quantitate ATP citrate lyase (ACL) activity in cellular extracts. As a positive control, stable transfectants of a cell line dependent on IL-3 for the induction of cell proliferation was also produced. The cytosolic extracts from the wild type cells and ATP citrate lyase transfected cells were analyzed by determining the level of ATP citrate lyase activity per 10^6 cells as determined by the malate dehydrogenase catalyzed reduction of oxaloacetate by NADH. NADH consumption was measured by monitoring the reaction at 340 nm. Assays were run by providing citrate at 100 μM in the presence of 5 mM ATP and 300 μM of CoA.

[2] = tested on: FL5.12 cells; assay: Cell proliferation and survival of IL-3 stimulated FL5.12 cells in culture; assay type: cell-based
Experimental: As a result, we have investigated the ability of hydroxycitrate to inhibit the proliferative response of FL5.12 cells stimulated by interleukin-3. […] The IC50 of this effect approximates the efficacy of hydroxycitrate in inhibiting ACL-dependent fatty acid synthesis as reported by others (Pearce et al. 1998).
(§1) When 3-carbox-11-(2,4-dichlorophenyl)-3,5dihydroxyundecanoic acid (see FIG. 4 for structures) is added to mitogen stimulated cell extracts with an IC50 of approximately 3 μM and when cells were treated with a γ-lactone derivative that is cell permeant, the cell proliferation was inhibited at approximately a 10 μM concentration and both cell proliferation and cell survival were inhibited at 30 μM concentrations (FIG. 6).

[3] = tested on: Bax/Bak-deficient, IL-3-dependent cell lines; assay: Mitogen-induced cell growth of Bax/Bak-deficient, IL-3-dependent cell lines; assay type: cell-based, mice; conditions: 30 μM, resting cells treated with IL-3; FIG. 14
[4] = tested on: cells transfected with the oncogene Bcl-xL; assay: Proliferation and cell death of Bcl-xL-transfected cells in presence or absence of the mitogen IL-3; assay type: cell-based; conditions: 30 μM, FIG. 11
[5] = tested on: hematopoietic IL3-dependent cell lines; assay: In vitro apoptosis assay (Annexin V / propidium iodide flow cytometry); assay type: cell-based; conditions: 30 μM; FIG. 9
Experimental: Remove 500 μl of treated or untreated cells (at concentrations of 0.5-1×10^6 cells/ml) to a FACS tube and add 50 μl of 10× Annexin V binding buffer (BD Biosciences Pharmingen, San Diego, Calif.) to each tube. Stain cells with Annexin V-FITC (BD Biosciences Phanningen, San Diego, Calif. ) using 4 μl Annexin V-FITC and propidium iodide (Molecular Probes, Eugene, Oreg.) at a final concentration of 3 μg/ml of cells. The cells are preferably hematopoietic IL3-dependent cell lines such as for example IL3-dependent FL5.12 pro-B cells transfected with different transgenes (Bcl-xL, myrAkt) or vector control plasmids and IL3-dependent cells isolated from the bone marrow of Bax−/−Bak−/− knockout mice. Incubate at 37° for 30 minutes. Perform flow cytometry. Early apoptotic cells are Annexin V positive, propidium iodide negative while late apoptotic cells are both Annexin V and propidium iodide positive.
as §1

[6] = tested on: mitogen-stimulated cells and proliferating transformed cell cultures; assay: Cell cycle analysis of mitogen-stimulated cells and proliferating transformed cell cultures; assay type: cell-based; conditions: 30 μM; FIG. 8
Experimental: as §1

- IC50 [1]: ~3 µM
Compound: O=C(O)CC(O)(CC(O)CCCCCCc1ccc(Cl)cc1Cl)C(=O)O (centres unmarked) [3-carbox-11-(2,4-dichlorophenyl)-3,5dihydroxyundecanoic acid]

Compound: O=C(O)CC(O)(C(=O)O)C(O)C(=O)O (centres unmarked) [hydroxycitrate]
- overall cell number and viability of cells in culture ([2]; added to IL-3-containing cultures of FL5.12, FIG. 3): progressive decline in the overall cell number and viability

Compound: O=C(O)C[C@@]1(O)C[C@@H](CCCCCCc2ccc(Cl)cc2Cl)OC1=O [γ-lactone derivative]
- mitogen-induced cell growth [3]: nearly completely inhibited
- concentration at which both cell proliferation and cell survival were inhibited ([2]; FIG. 6): 30 µM
- concentration at which cell proliferation was inhibited ([2]; cells treated with cell permeant γ-lactone, FIG. 6): ~10 µM
- inhibition of cell proliferation in each independent cell clone ([2]; immortalized hematopoietic cells, independent clones, doses between 10 and 30 μM, FIG. 7): approximately 50%
- cell death ([4]; in presence of IL-3): induction of apoptotic cell death
- mitogen-induced cell proliferation ([4]; in presence of IL-3): near complete inhibition
- toxicity in nongrowing cells ([4]; nongrowing cells (IL-3 withdrawal)): relatively nontoxic
- annexin-V positivity (induction of apoptosis) [5]: rapid induction of the annexin-V positivity
- cell cycle effect [6]: G1 arrest
